This note sets out measurements from patent US20110117055A1, “Methods of Treating Hepatitis C Virus with Oxoacetamide Compounds” (priority 2009, published 2011).

This test concerns HCV2aChLuc virus. Nature of the test: In vitro HCVcc entry assay: HCV2aChLuc virus infection of Huh7 cells, Renilla luciferase read-out. To be noted: Hepatitis C virus, Huh-7, read-out: Activity class (IC50), tested according to the method of Example 3. It is filed as cell-based, HCV genotype 2a.

Structures are written as SMILES.

`COc1c(NC(=O)C(=O)c2ccc(OCCN3CCOCC3)c3ccccc23)cc(C(C)(C)C)cc1S(=O)(=O)N(C)C` [Compound 2, N-(5-tert-butyl-3-(N,N-dimethylsulfamoyl)-2-methoxyphenyl)-2-(4-(2-morpholinoethoxy)naphthalen-1-yl)-2-oxoacetamide]: the IC50 was under 5 nM. On to `COc1c(NC(=O)C(=O)c2ccc(OCCN(CCO)CCO)c3ccccc23)cc(C(C)(C)C)cc1NS(C)(=O)=O` [Compound 3, 2-(4-(2-(bis(2-hydroxyethyl)amino)ethoxy)-naphthalen-1-yl)-N-(5-tert-butyl-2-methoxy-3-(methylsulfonamido)phenyl)-2-oxoacetamide], for which the IC50 was under 5 nM. Under `COc1c(C#N)cc(C(C)(C)C)cc1NC(=O)C(=O)c1ccc(OCCN2CCOCC2)c2ccccc12` [Compound 4, N-(5-tert-butyl-3-cyano-2-methoxyphenyl)-2-(4-(2-morpholinoethoxy)naphthalen-1-yl)-2-oxoacetamide] stands under 5 nM; under `CNC(=O)c1cc(C(C)(C)C)cc(NC(=O)C(=O)c2ccc(OCCN3CCOCC3)c3ccccc23)c1OC` [Compound 6, 5-tert-butyl-2-methoxy-N-methyl-3-(2-(4-(2-morpholinoethoxy)naphthalen-1-yl)-2-oxoacetamido)benzamide], under 5 nM. Turning to `CCNC(=O)c1cc(C(C)(C)C)cc(NC(=O)C(=O)c2ccc(OCCN3CCOCC3)c3ccccc23)c1OC` [Compound 7, 5-tert-butyl-N-ethyl-2-methoxy-3-(2-(4-(2-morpholinoethoxy)naphthalen-1-yl)-2-oxoacetamido)benzamide], the IC50 is under 5 nM.

With `CCNC(=O)c1cc(C(C)(C)C)cc(NC(=O)C(=O)c2ccc(OC)c3ccccc23)c1OC` [Compound 8, 5-tert-butyl-N-ethyl-2-methoxy-3-(2-(4-methoxynaphthalen-1-yl)-2-oxoacetamido)benzamide], the 50% inhibitory concentration (IC50) was under 5 nM.

As for `COCCNC(=O)c1cc(C(C)(C)C)cc(NC(=O)C(=O)c2ccc(OCCN3CCOCC3)c3ccccc23)c1OC` [Compound 9, 5-tert-butyl-2-methoxy-N-(2-methoxyethyl)-3-(2-(4-(2-morpholinoethoxy)naphthalen-1-yl)-2-oxoacetamido)benzamide], the IC50 is under 5 nM.

With `COc1c(NC(=O)C(=O)c2ccc(OCCN3CCOCC3)c3ccccc23)cc(C(C)(C)C)cc1C(=O)Nc1ccccn1` [Compound 10, 5-tert-butyl-2-methoxy-3-(2-(4-(2-morpholinoethoxy)naphthalen-1-yl)-2-oxoacetamido)-N-(pyridin-2-yl)benzamide], the IC50 was under 5 nM. Under `COC(=O)c1sc(C(C)(C)C)cc1NC(=O)C(=O)c1ccc(OCCN2CCOCC2)c2ccccc12` [Compound 11, methyl 5-tert-butyl-3-(2-(4-(2-morpholinoethoxy)naphthalen-1-yl)-2-oxoacetamido)thiophene-2-carboxylate] stands under 5 nM; under `CNC(=O)c1sc(C(C)(C)C)cc1NC(=O)C(=O)c1ccc(OCCN2CCOCC2)c2ccccc12` [Compound 12, 5-tert-butyl-N-methyl-3-(2-(4-(2-morpholinoethoxy)naphthalen-1-yl)-2-oxoacetamido)thiophene-2-carboxamide], under 5 nM. `COc1c(NC(=O)C(=O)c2ccc(OCCN3CCOCC3)c3ccccc23)cc(C)cc1NS(C)(=O)=O` [Compound 13, N-(2-methoxy-5-methyl-3-(methylsulfonamido)phenyl)-2-(4-(2-morpholinoethoxy)naphthalen-1-yl)-2-oxoacetamide]: the IC50 lay within 5 to 500 nM. The figure for `COc1ccc(C(C)(C)C)cc1NC(=O)C(=O)c1ccc(OC)c2ccccc12` [Compound 14, N-(5-tert-butyl-2-methoxyphenyl)-2-(4-methoxynaphthalen-1-yl)-2-oxoacetamide] is under 5 nM; for `COc1ccc(C2CCCCC2)cc1NC(=O)C(=O)c1ccc(OCCN2CCOCC2)c2ccccc12` [Compound 15, N-(5-cyclohexyl-2-methoxyphenyl)-2-(4-(2-morpholinoethoxy)naphthalen-1-yl)-2-oxoacetamide] it is under 5 nM; for `COc1ccc(C(C)(C)c2ccccc2)cc1NC(=O)C(=O)c1ccc(OCCN2CCOCC2)c2ccccc12` [Compound 16, N-(2-methoxy-5-(2-phenylpropan-2-yl)phenyl)-2-(4-(2-morpholinoethoxy)naphthalen-1-yl)-2-oxoacetamide] it is under 5 nM.

Regarding `COc1c(NC(=O)C(=O)c2ccc(OC)c3ccccc23)cc(C(C)(C)C)cc1C(=O)NCC1CC1` [Compound 17, 5-tert-butyl-N-(cyclopropylmethyl)-2-methoxy-3-(2-(4-methoxynaphthalen-1-yl)-2-oxoacetamido)benzamide], the IC50 was under 5 nM. Under `CCCNC(=O)c1cc(C(C)(C)C)cc(NC(=O)C(=O)c2ccc(OCCN3CCOCC3)c3ccccc23)c1OC` [Compound 18, 5-tert-butyl-2-methoxy-3-(2-(4-(2-morpholinoethoxy)naphthalen-1-yl)-2-oxoacetamido)-N-propylbenzamide] stands under 5 nM; under `CCOc1ccc(C(=O)C(=O)Nc2cc(C(C)(C)C)ccc2OC)c2ccccc12` [Compound 19, N-(5-tert-butyl-2-methoxyphenyl)-2-(4-ethoxynaphthalen-1-yl)-2-oxoacetamide], under 5 nM; under `COc1ccc(C(C)(C)C)cc1NC(=O)C(=O)c1ccc(OC(C)C)c2ccccc12` [Compound 20, N-(5-tert-butyl-2-methoxyphenyl)-2-oxo-2-[4-(propan-2-yloxy)naphthalen-1-yl]acetamide], under 5 nM. With `COc1c(NC(=O)C(=O)c2ccc(OCCN3CCOCC3)c3ccccc23)cc(C(C)(C)C)cc1NC(=O)N1CCCC1` [Compound 22], the IC50 was 5 to 500 nM. With `CCC(C)(C)c1cc(NC(=O)C(=O)c2ccc(OCCN3CCOCC3)c3ccccc23)c(OC)c(C(C)(C)CC)c1` [Compound 23], the IC50 lay in the range of 5 to 500 nM.

On to `COc1c(NC(=O)C(=O)c2ccc(OCCN3CCOCC3)c3ccccc23)cc(C(C)(C)C)cc1C(=O)N1CCOCC1` [Compound 24], for which the IC50 was 5 to 500 nM.

In the case of `COc1c(NC(=O)C(=O)c2ccc(OCCN3CCOCC3)c3ccccc23)cc(C(C)(C)C)cc1C(=O)N1CCCCC1` [Compound 25], the IC50 fell in the range of 5 to 500 nM. Regarding `COc1c(NC(=O)C(=O)c2ccc(OCCN3CCOCC3)c3ccccc23)cc(C(C)(C)C)cc1C(=O)N1CCNC(=O)C1` [Compound 26], the IC50 lay in the range of 5 to 500 nM. Under `CC(C)(C)c1cccc(NC(=O)C(=O)c2ccc(OCCN3CCOCC3)c3ccccc23)c1` [Compound 27] stands over 500 nM.

On to `COc1ccc(C(F)(F)F)cc1NC(=O)C(=O)c1ccc(OCCN2CCOCC2)c2ccccc12` [Compound 28], for which the IC50 was over 500 nM. The figure for `CC(C)(C)c1cc(CN2CCOCC2)c(O)c(NC(=O)C(=O)c2ccc(OCCN3CCOCC3)c3ccccc23)c1` [Compound 29] is over 500 nM.

Turning to `Cc1cc(C(C)(C)C)cc(NC(=O)C(=O)c2ccc(OCCN3CCOCC3)c3ccccc23)c1O` [Compound 30], the IC50 was over 500 nM. With `COc1c(C)cc(C(C)(C)C)cc1NC(=O)C(=O)c1ccc(OCCN2CCOCC2)c2ccccc12` [Compound 31], the IC50 was over 500 nM. With `CC(C)(C)c1ccc(NC(=O)C(=O)c2ccc(OCCN3CCOCC3)c3ccccc23)cc1` [Compound 32], the IC50 was over 500 nM. Under `CC(C)(C)c1cc(NC(=O)C(=O)c2ccc(OCCN3CCOCC3)c3ccccc23)c(O)c(C(N)=O)c1` [Compound 33] stands over 500 nM.

One may read the IC50 as the concentration that gives 50% inhibition.
